Measured values as given in PMC6841712 (Scientific Reports, 2019).

Target: T1, 145138 (Aurantiochytrium limacinum, UniProt A0A3S5XF47)
T1 construct: 6x His-tagged full-length ORF overexpressed in A. limacinum; secreted form purified from medium on Ni-Sepharose; cleaved between L159 and A160; N-terminus ALSSS; 30 kDa on SDS-PAGE
Experiment: inhibition of TF-TG hydrolysis ([…],3-TF-DG release), TLC fluorescence scan
Type: biochemical
Conditions: competitive; substrate TF-TG

T1 sequence (A0A3S5XF47 160-420): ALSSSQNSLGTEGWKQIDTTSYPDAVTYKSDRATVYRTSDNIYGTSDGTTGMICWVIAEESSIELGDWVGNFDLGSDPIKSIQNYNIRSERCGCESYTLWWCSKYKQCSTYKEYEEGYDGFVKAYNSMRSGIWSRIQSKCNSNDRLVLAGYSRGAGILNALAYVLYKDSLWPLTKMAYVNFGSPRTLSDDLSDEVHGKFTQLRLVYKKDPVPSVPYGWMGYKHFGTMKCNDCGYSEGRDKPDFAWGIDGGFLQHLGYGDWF

CCCCCCCCCCCCCCCCCC(=O)O[C@H](CO)COP(=O)([O-])OCC[N+](C)(C)C [2-acyl LPC]
inhibition of TF-TG hydrolysis (1,3-TF-DG release), TLC fluorescence scan: 2-acyl LPC competitively inhibited the release of fatty acyl chain at sn-2 of TG
